For two molecules, IC50 and inhibition results are on record in US20130150363A1, “Method of Treating Cancer Using a cMET and AXL Inhibitor and an ErbB Inhibitor” (GlaxoSmithKline, priority 2008, published 2013).

Some results are limits rather than exact numbers.

Assay [1] deals with HT29 colon carcinoma cells. Kind of assay: Cell growth inhibition (CellTiter-Glo), HT29. It counts as cell-based. The settings on record: Homo sapiens, HT-29, 72 h, 3 days. The source says: (§1) Esophageal carcinoma cell line OE33 was purchased from ECACC European Collection of Cell Cultures (UK). Breast cancer cell line JIMT-1 and gastric carcinoma cell line MKN-45 were purchased from Deutsche Sammlung von Mikroorganismen and Zellkulturen GmbH (Germany); KPL-4, a human breast cancer cell line was kindly provided by Prof. J Kurebayashi (Kawasaki Medical School, Kurashiki, Japan). […] The LICR-LON-HN5 head and neck carcinoma cell line (HN5) was a gift from the Institute of Cancer Research, Surrey, U.K. HN5C12 was developed by single-cell cloning of HN5 followed by exposure to increasing concentrations of lapatinib. […] Cell growth inhibition was determined via CellTiter-Glo cell viability assays. […] ATP levels were determined by adding Cell Titer Glo0 (Promega), incubating for 20 minutes then the luminescent signal was read on the SpectraMax M5 plate with a 0.5 second integration time. Cell growth was calculated relative to vehicle (DMSO) treated control wells. […] CI values were calculated with the interpolated IC50 values and the mutually non-exclusive equation derived by Chou and […](a)+Db/IC50(b)+(Da×Db)/(IC50(a)×IC50(b)) where IC50(a) is the IC50 of the inhibitor A; IC50(b) is the IC50 for the inhibitor B; […] […] EOHSA at each dose was calculated as the minimum difference in average % inhibition between the combination and each monotherapy, from the appropriate ANOVA contrast. […]

Assay [2] concerns lung_H1975 tumor cells. Kind of assay: Cell growth inhibition (CellTiter-Glo), H1975. It counts as cell-based. As to conditions: Homo sapiens, NCI-H1975, 72 h, 3 days. In general terms: Cellular ATP, detected with luciferase, serves as a proxy for viable cell number.
Assay [3] has as its system N87 gastric carcinoma cells. Kind of assay: Cell growth inhibition (CellTiter-Glo), N87. The assay is classed as cell-based. As to conditions: Homo sapiens, 72 h, 3 days. The text has this:
Esophageal carcinoma cell line OE33 was purchased from ECACC European Collection of Cell Cultures (UK). Breast cancer cell line JIMT-1 and gastric carcinoma cell line MKN-45 were purchased from Deutsche Sammlung von Mikroorganismen and Zellkulturen GmbH (Germany); KPL-4, a human breast cancer cell line was kindly provided by Prof. J Kurebayashi (Kawasaki Medical School, Kurashiki, Japan). […] The LICR-LON-HN5 head and neck carcinoma cell line (HN5) was a gift from the Institute of Cancer Research, Surrey, U.K. HN5C12 was developed by single-cell cloning of HN5 followed by exposure to increasing concentrations of lapatinib. […] Cell growth inhibition was determined via CellTiter-Glo cell viability assays. […] BT474-J4 and HN5C12 were washed with PBS and plated in their culture media without lapatinib. […] ATP levels were determined by adding Cell Titer Glo0 (Promega), incubating for 20 minutes then the luminescent signal was read on the SpectraMax M5 plate with a 0.5 second integration time. Cell growth was calculated relative to vehicle (DMSO) treated control wells. […] EOHSA at each dose was calculated as the minimum difference in average % inhibition between the combination and each monotherapy, from the appropriate ANOVA contrast. […] The p-values for both synergy and antagonism were calculated using this adjustment.

For assay [4], the system named is HS746T gastric carcinoma cells. Kind of assay: Cell growth inhibition (CellTiter-Glo), HS746T. The assay is classed as cell-based. The settings on record: Homo sapiens, HS746T (HER3-low).
From the text: as §1

The test system of assay [5] is BT474-J4 lapatinib resistant breast carcinoma cells. Kind of assay: Cell growth inhibition (CellTiter-Glo), BT474-J4. It counts as cell-based. The settings on record: Homo sapiens; for IC50: 72 h, 3 days. The source says:
Esophageal carcinoma cell line OE33 was purchased from ECACC European Collection of Cell Cultures (UK). Breast cancer cell line JIMT-1 and gastric carcinoma cell line MKN-45 were purchased from Deutsche Sammlung von Mikroorganismen and Zellkulturen GmbH (Germany); KPL-4, a human breast cancer cell line was kindly provided by Prof. J Kurebayashi (Kawasaki Medical School, Kurashiki, Japan). […] The LICR-LON-HN5 head and neck carcinoma cell line (HN5) was a gift from the Institute of Cancer Research, Surrey, U.K. HN5C12 was developed by single-cell cloning of HN5 followed by exposure to increasing concentrations of lapatinib. […] Cell growth inhibition was determined via CellTiter-Glo cell viability assays. […] BT474-J4 and HN5C12 were washed with PBS and plated in their culture media without lapatinib. […] ATP levels were determined by adding Cell Titer Glo0 (Promega), incubating for 20 minutes then the luminescent signal was read on the SpectraMax M5 plate with a 0.5 second integration time. Cell growth was calculated relative to vehicle (DMSO) treated control wells. […] Excess Over Highest Single Agent (EOHSA) is defined as a statistically significant improvement in the combination compared to the component monotherapies. […] Analysis was conducted using two-factor analysis of variance with interaction (model terms were dose of drug A, dose of drug B, and interaction between doses of drug A and B), followed by linear contrasts between each combination group and corresponding monotherapies. Analysis was conducted using SAS (version 9, provided by SAS Institute, Cary, N.C.). EOHSA at each dose was calculated as the minimum difference in average % inhibition between the combination and each monotherapy, from the appropriate ANOVA contrast. Since there are many comparisons for the % inhibition endpoint, p-value adjustment for multiple comparisons was performed. Hommel's procedure was implemented in order to improve the power while retaining […] […] The p-values for both synergy and antagonism were calculated using this adjustment.

In assay [6] the test system is JIMT-1 breast cancer cells. Kind of assay: Cell growth inhibition (CellTiter-Glo), JIMT-1. As to conditions: Homo sapiens, JIMT-1, 72 h, 3 days. It counts as cell-based.
From the text: as §1

Assay [7] has as its system OE33 esophageal carcinoma cells. Kind of assay: Cell growth inhibition (CellTiter-Glo), OE33. As to conditions: 3 days. It counts as cell-based, human. The source says:
Esophageal carcinoma cell line OE33 was purchased from ECACC European Collection of Cell Cultures (UK). Breast cancer cell line JIMT-1 and gastric carcinoma cell line MKN-45 were purchased from Deutsche Sammlung von Mikroorganismen and Zellkulturen GmbH (Germany); KPL-4, a human breast cancer cell line was kindly provided by Prof. J Kurebayashi (Kawasaki Medical School, Kurashiki, Japan). […] The LICR-LON-HN5 head and neck carcinoma cell line (HN5) was a gift from the Institute of Cancer Research, Surrey, U.K. HN5C12 was developed by single-cell cloning of HN5 followed by exposure to increasing concentrations of lapatinib. […] Cell growth inhibition was determined via CellTiter-Glo cell viability assays. […] BT474-J4 and HN5C12 were washed with PBS and plated in their culture media without lapatinib. […] ATP levels were determined by adding Cell Titer Glo0 (Promega), incubating for 20 minutes then the luminescent signal was read on the SpectraMax M5 plate with a 0.5 second integration time. Cell growth was calculated relative to vehicle (DMSO) treated control wells. […] Excess Over Highest Single Agent (EOHSA) is defined as a statistically significant improvement in the combination compared to the component monotherapies. […] Analysis was conducted using two-factor analysis of variance with interaction (model terms were dose of drug A, dose of drug B, and interaction between doses of drug A and B), followed by linear contrasts between each combination group and corresponding monotherapies. Analysis was conducted using SAS (version 9, provided by SAS Institute, Cary, N.C.). EOHSA at each dose was calculated as the minimum difference in average % inhibition between the combination and each monotherapy, from the appropriate ANOVA contrast. Since there are many comparisons for the % inhibition endpoint, p-value adjustment for multiple comparisons was performed. Hommel's procedure was implemented in order to improve the power while retaining […] Error Rate (FWE) control by using a sequentially rejective method. The p-values for both synergy and antagonism were calculated using this adjustment.

The test system of assay [8] is MKN-45 gastric carcinoma cells. Kind of assay: Cell growth inhibition (CellTiter-Glo), MKN-45. The assay is classed as cell-based. The settings on record: Homo sapiens, MKN-45, MKN-45 (HER3-over).
From the text: as §1

Usually IC50 stands for the concentration needed to halve the response being measured. With `C#Cc1cccc(Nc2ncnc3cc(OCCOC)c(OCCOC)cc23)c1` [Erlotinib, N-(3-ethynylphenyl)-6,7-bis{[2-(methyloxy)ethyl]oxy}-4-quinazolinamine], the IC50 in assay [1] (colon_HT-29, +HGF (2 ng/mL)) was more than 10 µM; in assay [1] (colon_HT-29, −HGF), more than 10 µM; in assay [2] (lung_H1975, +HGF (2 ng/mL)) it was more than 10 µM; in assay [2] (lung_H1975, −HGF), more than 10 µM.
By inhibition is commonly meant the share of the control response that was lost under treatment. For `CS(=O)(=O)CCNCc1ccc(-c2ccc3ncnc(Nc4ccc(OCc5cccc(F)c5)c(Cl)c4)c3c2)o1` [Lapatinib, N-(3-chloro-4-{[(3-fluorophenyl)methyl]oxy}phenyl)-6-[5-({[2-(methylsulfonyl)ethyl]amino}methyl)-2-furanyl]-4-quinazolinamine], the IC50 in assay [3] (gastric_N87, +HGF (2 ng/mL)) is 4.8 µM; in assay [3] (gastric_N87, −HGF), 0.05 µM; in assay [4] (+HRG (10 ng/mL)), 7.37 µM; in assay [4] (−HRG), 7.69 µM; in assay [5] (breast_BT474-J4, +HGF (2 ng/mL)) it was more than 10 µM; in assay [5] (breast_BT474-J4, −HGF) it was more than 10 µM. Besides, the IC50 in assay [6] (breast_JimT1, +HGF (2 ng/mL)) is more than 10 µM; in assay [6] (breast_JimT1, −HGF) it was more than 10 µM; in assay [7] (Homo sapiens, OE33, 72 h, eso_OE33, +HGF (2 ng/mL)), more than 10 µM; in assay [7] (Homo sapiens, OE33, 72 h, eso_OE33, −HGF), 6.5 µM; in assay [7] (eso_OE33, +HGF (2 ng/mL)), 5.52 µM; in assay [7] (eso_OE33, −HGF), 6.52 µM. Further, the IC50 in assay [8] (+HRG (10 ng/mL)) worked out at 5.06 µM; in assay [8] (−HRG), 6.16 µM. Also, the inhibition at 1 µM in assay [5] (BT474-J4, lapatinib by itself at 1.0 μM (FIG. 5A)) is less than 50%.
